Data from paper PMC10388362, “Fluorescent Ligands Enable Target Engagement Studies for the Intracellular Allosteric Binding Site of the Chemokine Receptor CXCR2” (Journal of Medicinal Chemistry, 2023).

Columns and labels:
CXCR2 [1] = target: T1, CXCR2 (Homo sapiens, UniProt P25025); assay: Membrane-based NanoBRET competition assay with 9a; format: binding; details: competition with 9a (50 nM), CXCR2_Nluc membranes
T1 construct: Promega pNLF1-C (Nluc) #CXCR20TN00; host or cells: HEK293T, transient transfection (PEI)
T1 sequence (P25025 1-360): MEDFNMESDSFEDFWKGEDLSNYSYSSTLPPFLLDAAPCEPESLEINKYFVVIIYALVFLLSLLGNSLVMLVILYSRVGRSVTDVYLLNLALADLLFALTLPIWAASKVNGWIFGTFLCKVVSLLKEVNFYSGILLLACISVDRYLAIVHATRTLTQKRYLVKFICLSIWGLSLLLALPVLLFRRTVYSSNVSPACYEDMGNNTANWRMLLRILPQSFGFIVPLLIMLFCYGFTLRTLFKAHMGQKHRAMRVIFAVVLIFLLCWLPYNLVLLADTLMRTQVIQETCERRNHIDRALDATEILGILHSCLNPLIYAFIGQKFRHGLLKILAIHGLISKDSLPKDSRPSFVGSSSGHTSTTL
Procedure: Then, 20 μL of the membrane preparation (diluted in assay buffer, 2 μg total protein/well) was added and the plates were incubated for 90 min at 37 °C. Subsequently, 5 μL of a furimazine solution (final assay dilution: 1:5000 in the assay buffer) was added to each well (final assay volume: 35 μL). […] To determine the inhibition constants (Ki) of the nonlabeled ligands, data were analyzed using the one-site-fit Ki equation in PRISM9.5 (GraphPad).

CXCR2 [2] = target: T1, CXCR2; assay: Membrane-based NanoBRET competition kinetic assay with 9a; details: kinetic competitive binding with 9a (50 nM), CXCR2_Nluc membranes; read-out: residence time tr
Procedure: 2.5 μL of a solution of the fluorescent ligand (9a) diluted in the assay buffer (final assay concentration: 50 nM) and 2.5 μL of a solution of the competing nonlabeled ligands (final assay concentrations: […]) or 3 for determining nonspecific binding (final assay concentration: 25 μM) in the assay buffer were transferred to a 384-well plate. […] Thereafter, 20 μL of the membrane preparation (2 μg total protein/well) was added and BRET ratios were measured with a CLARIOstar microplate reader using 620/10 and 475/30 nm emission filters over time. Specific BRET ratios were calculated as a difference of total and nonspecific binding. The obtained data were analyzed using the kinetics of the competitive binding algorithm in PRISM9.5 (GraphPad) to determine competition binding kinetics.

CXCR2 [3] = target: T1, CXCR2; assay: Live cell NanoBRET competition binding with 9a; details: competition with 9a (50 nM), live HEK293T cells expressing CXCR2_Nluc
Procedure: HEK293T cells were transfected with the plasmid (5.5 μg) for CXCR2_Nluc using polyethylenimine (PEI) as transfection reagent (PEI/DNA ratio 3:1). After 24 h at 37 °C and 5% CO2, the cells were detached with DMEM and transferred to a white F-bottom 384-well plate (10,000 cells/well), which was coated with 5 μL/well poly-D-lysine (0.1 mg/mL, dissolved in water), and incubated for further 24 h at 37 °C and 5% CO2. Subsequently, the cells were washed with phosphate-buffered saline (Gibco DPBS, with CaCl2 and MgCl2). The assay medium (Gibco DMEM/F12, 15 mM HEPES, no phenol red supplemented with 5% FBS) was added and the cells were incubated at 37 °C for 30 min. […] To determine nonspecific binding, 5 μL of a solution of 3 dissolved in the assay medium (final assay concentration: 10 μM) were added.
Total, nonspecific and specific binding, which was calculated as a difference of total and nonspecific binding, were analyzed using the algorithms for one-site saturation binding in PRISM9.5 (GraphPad). To determine the inhibition constants (Ki) of the potential competitors, data were normalized to total and nonspecific binding and analyzed using the one-site-fit Ki equation in PRISM9.5 (GraphPad).

CXCR2 [4] = target: T1, CXCR2; assay: Fluorescence microscopy, displacement of 9a in HEK293 cells stably expressing CXCR2; format: cell-based; details: 9a 500 nM
Procedure: For live cell microscopy, HEK293 cells stably expressing CXCR2 were seeded onto poly-D-lysine (PDL)-coated 8-well μ-slides (Ibidi) at a density of 1.5 × 10^5 cells per well and cultured overnight at 37 °C and 5% CO2. […] Afterward, the fluorescent CXCR2 ligand ((9a) final concentration 500 nM) was added for 60 min at 37 °C, and the cells were washed once with PBS before imaging. For immunostaining, the cells were first fixed with 4% paraformaldehyde solution, washed with PBS, and then blocked for 1 h with 10% goat serum and 1% fatty acid-free bovine serum albumin (BSA) in PBS at 37 °C. As primary antibody, anti-CXCR2 mouse IgG (R&D Systems, catalog # 48311, 1:100 in blocking solution) was added, and the cells were incubated for 1 h at 37 °C. After three washes with PBS, goat anti-mouse IgG (H+L) conjugated to FITC (Sigma-Aldrich, catalog # AP124F, 1:500 in blocking solution) was added for 1 h at 37 °C. The cells were again washed three times with PBS and counterstained with 4′,6-diamidin-2-phenylindole (DAPI) solution (0.1 μg/mL) for 15 min in the dark at room temperature, followed by three washes with PBS. […] Afterward, the fluorescent CXCR2 ligand ((9a) final concentration 500 nM) was added for 30 min at 37 °C and the cells were imaged. Microscopy was carried out on an AxioObserver.Z1 microscope (Carl Zeiss, Jena, Germany) equipped with an ApoTome imaging system and a Heating unit XL S using a Plan-Apochromat ×63/1.40 Oil objective (filter set 43 (red), 38 (green), 49 (blue)). Image processing and line scan analysis were performed with Zen blue Imaging software. The fluorescence intensity values were normalized to vehicle control.

Ki (CXCR2 [1]; read-out: Ki): 0.09 nM
Ki (CXCR2 [1]; read-out: pKi (converted)): 0.0794 nM
residence time (CXCR2 [2]): 474 ± 59 min
Ki (CXCR2 [3]; read-out: Ki): 0.011 nM
Ki (CXCR2 [3]; read-out: pKi (converted)): 0.00933 nM
SMILES: Cc1ccc([C@H](Nc2c(Nc3cccc(C(=O)N(C)C)c3O)c(=O)c2=O)C(C)(C)C)o1 [compound 3]
effect of preincubation on membrane-associated 9a fluorescence (CXCR2 [4]; fixed HEK293 cells stably expressing CXCR2, competitor 10 μM): virtually blunted all membrane-associated probe fluorescence
effect of preincubation on membrane-based 9a fluorescence (CXCR2 [4]; live cell imaging, HEK293 cells stably expressing CXCR2, competitor 10 μM): very strong reduction in membrane-based fluorescence
